Measured values as given in paper PMC10539794, “Structural polymorphism and substrate promiscuity of a ribosome-associated molecular chaperone” (Magnetic resonance, 2021).
Where no end group is shown, it is not given here.

Assays:
[1] = molecular target: T1, E. coli TF (trigger factor), full-length (Escherichia coli, UniProt P0A850); assay: Fluorescence polarization analysis of TF binding to FITC-labeled peptides; details: N-terminally FITC-labeled peptide 1 µM, full-length TF 0.1-1000 µM, 20 mM Tris pH 7.4, 100 mM NaCl, ex 485 nm / em 535 nm, one-site binding model, errors from three technical replicates
T1 construct: His6 (N); made in house
T1 sequence (P0A850 1-432): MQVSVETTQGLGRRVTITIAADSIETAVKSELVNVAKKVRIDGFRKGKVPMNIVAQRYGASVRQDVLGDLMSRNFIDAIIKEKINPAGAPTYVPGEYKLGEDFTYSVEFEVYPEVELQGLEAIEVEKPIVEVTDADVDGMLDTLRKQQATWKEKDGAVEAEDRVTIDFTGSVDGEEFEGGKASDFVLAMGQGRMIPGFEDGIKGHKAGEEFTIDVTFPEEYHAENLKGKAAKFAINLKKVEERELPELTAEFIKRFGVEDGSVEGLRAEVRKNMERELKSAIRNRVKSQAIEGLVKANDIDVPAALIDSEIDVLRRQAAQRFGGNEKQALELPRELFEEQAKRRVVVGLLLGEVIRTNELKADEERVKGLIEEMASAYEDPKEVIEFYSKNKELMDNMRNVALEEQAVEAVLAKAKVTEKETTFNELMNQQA
Description: A fraction of all these peptides were subsequently labeled with FITC at the N-terminus for fluorescence polarization (FP) measurements. […] For FP analysis, FITC-labeled peptides were dissolved in DMSO to yield a stock solution of 4 M. They were subsequently diluted by 20 mM Tris (pH 7.4) and 100 mM NaCl to yield a molar concentration of 100 µM . 200 µL of TF variants was transferred into a 96-well plate followed by serial dilution by the same buffer in a 1:1 dilution ratio. The final protein concentrations were between 0.1 and 1000 µM . After serial dilution, 50 µL of protein solutions of various protein concentrations was transferred to new wells by an eight-channel pipette and was mixed with FITC-labeled peptide solution to yield a peptide concentration of 1 µM . FP measurements of these samples were carried out using a plate reader (Paradigm, Molecular Device, USA) with an excitation wavelength of 485 nm and an emission wavelength of 535 nm. The integration time was set to 250 ms.

[2] = molecular target: FITC-labeled IcdH2 peptide (ICDH 125-137); assay: fluorescence polarisation; FITC-labeled peptide at 1 µM, TF serially diluted (0.1-1000 µM); 20 mM Tris pH 7.4, 100 mM NaCl; one-site binding model; apparent constants
[3] = molecular target: FITC-labeled IcdH3 peptide (ICDH 177-194); assay: as above
[4] = molecular target: FITC-labeled IcdH1 peptide (ICDH 55-70); assay: as above

| Substance | Kd [1] [µM] | Kd [2] [µM] | Kd [3] [µM] | Kd [4] [µM] |
| --- | --- | --- | --- | --- |
| KFLREEMGVKKIRFPEHC [IcdH3] | 132 ± 9 | – | – | – |
| KAYKGERKISWMEIYT [IcdH1] | 28.2 ± 1 | – | – | – |
| YICLRPVRYYQGT [IcdH2] | 8.6 ± 0.3 | – | – | – |
| E. coli trigger factor (TF), full length (from UniProt P0A850 1-432) (natural protein) | – | 8.6 | 132 | 28.2 |
